The subject of test [1] is human T-ALL lines. In words: Activity in established human T-ALL cell lines. Format: cell-based. As to conditions: PTEN wild type vs PTEN mutant.
In test [2] the test system is murine T-ALL cells. As to the kind of experiment: Silvestrol effect on murine T-ALL cells with engineered genetic lesions. Format: cell-based. The settings on record: cells expressing Akt, mutant IL7R, eIF4E or shRNA against Pten.
Test [3] has as its system renal carcinoma lines. In words: Silvestrol sensitivity of renal carcinoma lines. As to conditions: ACHN, A498, CAKI-1, CAKI-2 to 786-O. Format: cell-based.
For test [4], the system named is BE(1)N. In words: Silvestrol in neuroblastoma cell lines in vitro: BE(1)N. As to conditions: BE(1)N cells, N-MYC. In kind it is cell-based. As to the method: (§1) The effect of silvestrol on several neuroblastoma cell lines was evaluated.
In test [5] the test system is BE(2)C. As to the kind of experiment: Silvestrol in neuroblastoma cell lines in vitro: BE(2)C. Format: cell-based. The settings on record: Homo sapiens; BE(2)C cells, N-MYC. How it is done: as §1
In test [6] the test system is KOPTK1 cells. As to the kind of experiment: Polysome profiling. In kind it is cell-based, human. The settings on record: 25 nM, 45 minutes. How it is done:
Polysome profiling. KOPTK1 cells were treated with silvestrol or DMSO for 45 minutes, followed by cycloheximide treatment for 10 minutes. Cell pellet was lysed in polysome lysis buffer (300 mM NaCl, 15 mM Tris-HCl (pH 7.5), 15 mM MgCl2, 1% TritonX-100, 0.1 mg/ml Cycloheximide, 1 mg/ml Heparin). Polysome fractions were isolated using 4 ml 10-50% sucrose density gradients (300 mM NaCl, 100 mM MgCl2, 15 mM Tris-HCl (pH 7.5), 1 mg/ml Cycloheximide, 10 mg/ml Heparin). Gradients were centrifuged in an SW40Ti rotor at 35,000 rpm for 2 hrs. Fractions of 100 ul were collected manually from the top, and optical density (OD) at […] was measured.
FIG. 10 depicts ribosome profiling quality control data and effects on translation. A and B) Read counts by length of mapped sequence before and after filtering rRNA, linker reads, non-coding RNAs, short mapped sequences (“noisy” reads; see text and method for details). C and D) Read length frequency histograms and mapping analysis of ribosome footprint data after quality control filtering for vehicle treated cells (C) or silvestrol treated cells (D). […] F) Histogram of all genes' ribosome footprint intensity (measured as unique read number per million per gene, RPM) for silvestrol and vehicle treated cells indicating silvestrol affected mRNAs were broadly distributed (see text for details). […]

In test [7] the test system is KOPTK1 cells. In words: Metabolic labeling of nascent protein with L-azidohomoalanine (AHA). Format: cell-based, human. The settings on record: 25 nM; p vs. vehicle 3.6×10−3. How it is done: (Non-radioactive) Metabolic labeling of nascent protein. KOPTK1 cells were labeled for nascent protein synthesis using Click-iTR AHA (L-azidohomoalanine) metabolic labeling reagent obtained from Invitrogen (cat no. C10102) as per manufacturer's instructions. Briefly, following silvestrol, Cycloheximide or DMSO treated cells were incubated in methionine free medium for 30 min prior to AHA labeling for 1 hr. Cells were fixed with 4% paraformaldehyde in PBS for 15 min, permeablized with 0.25% Triton X-100 in PBS for 15 min followed by one wash with 3% BSA. Cells were then stained using Alexa Fluor 488 Alkyne (Invitrogen cat no. A10267) with Click-iT Cell reaction Buffer Kit (Invitrogen cat no. C10269). Changes in mean fluorescence intensity as a measure of newly synthesized protein was detected by Flow cytometry analysis.
The number of ribosomes occupying a given transcript is given as gene specific RF reads per one million total reads (RPM).
FIG. 10 depicts ribosome profiling quality control data and effects on translation. A and B) Read counts by length of mapped sequence before and after filtering rRNA, linker reads, non-coding RNAs, short mapped sequences (“noisy” reads; see text and method for details). C and D) Read length frequency histograms and mapping analysis of ribosome footprint data after quality control filtering for vehicle treated cells (C) or silvestrol treated cells (D). […]

Test [8] deals with SKNCM. In words: Silvestrol in neuroblastoma cell lines in vitro: SKNCM. Format: cell-based. As to conditions: SKNCM cells. How it is done:
as §1

The IC50 is the concentration needed to halve the response being measured. High values mean weaker potency in that assay, low ones greater potency in that assay. Consider `COC(=O)[C@H]1[C@@H](O)[C@@]2(O)c3c(OC)cc(O[C@@H]4O[C@@H]([C@H](O)CO)CO[C@H]4OC)cc3O[C@@]2(c2ccc(OC)cc2)[C@@H]1c1ccccc1` [silvestrol], for which the “activity against PTEN wild type and PTEN mutant cell lines and primary T-ALL cells” value in test [1] is reported as “equal activity”. Besides, the “sensitivity of murine T-ALL cells” value in test [2] is reported as “no significant difference in sensitivity”. The sensitivity result in test [3] was “range of sensitivities”. Further, the concentration for half-maximal inhibition (IC50) in test [4] is 2.52 nM; in test [5], 47.8 nM; in test [8], 20.2 nM. Besides, the “polyribosome bound RNA (fractions 30-40)” value in test [6] is recorded as “loss of polyribosome bound RNA”. Further, the “max. reduction of nascent protein synthesis (AHA labeling)” value in test [7] is around 60%.

The values above are taken from patent US20150219624A1, “METHODS FOR IDENTIFYING ANTI-CANCER COMPOUNDS” (MEMORIAL SLOAN KETTERING CANCER CENTER, priority 2013, published 2015).
